One assay deals with K562/Adr. The assay can be described thus: Growth inhibition of sensitive and drug-resistant cell lines (IC50), K562/Adr. It counts as cell-based. To be noted: Homo sapiens; K562/Adr drug-resistant cells. An excerpt:
(§1) HL-60/ADR, MCF-7/ADR, K562/ADR, Bel-7402/5-FU, KBV200, SMMC-7721/Adr were respectively chemotherapeutics Adriamycin (ADR), 5-Fluorouracil (5-FU) or vincristine (VCR) drug-resistant sub-stains of HL-60, MCF-7, K562, Bel-7402, KB, SMMC-7721 cells (all from Chinese Academy of Medical Sciences). NB4-R2 was all trans-retinoic acid (ATRA) drug-resistant sub-stain (from Pathophysiology Research Department of Shanghai JiaoTong University). The main drug-resistance mechanism of K562/ADR was high expression of P-glycoprotein (P-gp), along with increased expression of Bcl-2. In addition to high expression of P-gp, the drug-resistance mechanism of MCF-7/ADR also related to the high expression of Breast Cancer Resistant Protein (BCRP). The main drug-resistance mechanism of HL-60/ADR was high expression of Multidrug Resistance Protein 1 (MRP1), along with high expression of Bcl-2, Bcl-xL. […] The main drug-resistance mechanism of KBV200 was high expression of P-gp and its increased activity. The drug-resistance mechanism of NB4-R2 on ATRA was mutation in the RAR gene locus.
(§2) The human lung cancer cell H1299 and H446, glioma cell U251 and U87MG, and human hepatic cellular cancer Bel-7402 cell in logarithmic growth phase were digested with pancreatic enzyme, and then suspended into DMEM or RPMI1640 containing 10% fetal bovine serum. The leukemic cells Kasumi-1 need no digestion, and were suspended into RPMI1640 containing 10% fetal bovine serum directly after centrifugalization. The cell density was adjusted to 1×10^4 cells/ml through cell counting, and the cell suspensions were seeded into a 96-well plate respectively, 100 μl/well, totally 6 groups of cells. The adherent cells were cultured overnight, the suspended cells were added different concentration gradients of dimeric phthalide compounds (S1-S6) directly, n=6 for each concentration of a single agent. The final volume was 200 ul, and the balance was supplemented with the culture medium. The plate was then incubated for 68 hours in 37° C., saturated humidity, 5% CO2 cell incubator. The medium was aspirated and 72 μl/well fresh culture medium was added. 8 μl […] (CCK-8) was added into each well and cultured for 2 hours. The absorbance was measured at 450 nm. The results were calculated as the 50% inhibiting drug concentration, i.e. IC50, using Sigmoidal simulation function by software Origin 7.0.
(§3) The cancer cells (various cell lines as shown in table 1 or FIG. 3) were seeded 1×10^3 cells per well into a 96-well plate. The suspended cells were added different concentration of dimeric phthalide compounds (S1-S6) directly, and the adherent cells were cultured overnight and added different concentration of dimeric phthalide compounds (S1-S6). The different concentration of dimeric phthalide compounds were divided into 10 groups: 0, 0.1, 0.5, 1, 5, 10, 20, 40, 80, 160 μg/ml, n=6 for each concentration.
(§4) According to the method described in Example 2, […] was detected and IC50 was calculated. The experiment was repeated for 3 times.
(§5) The growth inhibition effects of dimers of S1-S6 on its sensitive cell lines as well as the drug-resistant sub-strains (IC50 (μg/ml)) were shown in table 1 and FIG. 3.

The test system of a further assay is MCF-7/Adr. In words: Growth inhibition of sensitive and drug-resistant cell lines (IC50), MCF-7/Adr. Type of assay: cell-based. The note with it: Homo sapiens, NCI/ADR-RES; MCF-7/Adr drug-resistant cells.
Text: as §1, §2, §3, §4, §5

The test system of assay [1] is Bel-7402. In words: Growth inhibition of sensitive and drug-resistant cell lines (IC50), Bel-7402. Type of assay: cell-based. To be noted: Homo sapiens; Bel-7402 cells, Table 1. The procedure:
In the following Examples, the cell lines used were H1299, H446 (human lung cancer cell line), KB (human oral cavity carcinoma cell line), NB4, HL-60 (human leukemic cell line), U251 ? U87MG (human glioblastoma cell line), MCF-7 (human breast carcinoma cell line), Bel-7402 and SMMC7721 (human hepatic cellular cancer cell line), SW620 (human colon carcinoma cell line), HDF (human dermis fibroblast), HUVEC (human umbilical vein endothelial cell line) and Kasumi-1 (human acute myeloid leukaemia cell line), all from American Type Culture Collection (ATCC).
as §2, §3, §4, §5

A further assay concerns Bel-7402/5-Fu. In words: Growth inhibition of sensitive and drug-resistant cell lines (IC50), Bel-7402/5-Fu. Type of assay: cell-based. The note with it: Homo sapiens, Bel7402/5-FU; Bel-7402/5-Fu drug-resistant cells.
Text: as §1, §2, §3, §4, §5

In a further assay the test system is HUVEC. The assay can be described thus: Vascular endothelial cell inhibition assay (CCK-8), HUVEC. It counts as cell-based. The note with it: Homo sapiens, 72 h. On the procedure: (§6) 2×10^3 cells were seeded into a 96-well plate and cultured for 24 h. S1-S6 of different concentrations (0, 0.01, 0.1, 0.5, 1, 2.5, 5, 10, 20, 40, 80, 160 μg/ml, respectively) were added and incubated for 72 h, n=6 for each concentration. The inhibition of cell proliferation was detected by CCK-8 assay, the results were calculated as IC50, as describe in Example 3.

The test system of assay [2] is Bel-7402. The assay can be described thus: Vascular endothelial cell inhibition assay (CCK-8), Bel-7402. Type of assay: cell-based. The note with it: Homo sapiens, 72 h, CCK-8, Table 2. On the procedure: as §6
Assay [3] relates to U87MG, H1299 and HL-60 heterograft tumors. The assay can be described thus: Inhibition of the growth of nude mouse heterograft tumors. To be noted: intraperitoneal; S4 25 mg/kg, S6 30 mg/kg, S1 32 mg/kg, BP 250 mg/kg; 4 weeks; FIG. 9. It counts as in vivo, Balb/c male nude mice. The procedure: Experimental grouping: Balb/c male nude mice were used, each weighted 18-22 g, and three assays were performed. The mice were seeded with U87MG, H1299 and HL-60 respectively. The animals were divided into three groups for each experiment, one as control, one was administered with the dimeric phthalide compounds, and one was administered with monomers of phthalide compound, 6 animals for each group.
For the group which was administered with monomers of phthalide compound, we used n-butylidenephthalide (BP) (Sigma) as active ingredient for tumor suppression, the compound had the structure as follows:
Experimental Process The H1299, HL-60 or U87MG cells growing in logarithmic phase were used. […] When the tumors had gown into 0.1-0.5 cm^3 (about 7-10 days), the animals were intraperitoneal injected with the dimeric phthalide compound S4 (25 mg/kg), S6 (30 mg/kg), S1 (32 mg/kg), each 200 μl; for the group of monomers of phthalide compound, the mice were intraperitoneal injected with n-butylidenephthalide (250 mg/kg); the control group was administered with equal volume of vehicle. The animals were sacrificed after 4 weeks, and the subcutaneous tumors were separated. Photographs were taken (FIG. 9A) and the tumors were weighted (FIG. 9B).

In general, IC50 refers to the concentration that gives 50% inhibition. Low readings indicate higher potency, high ones lower potency.

In brackets after ≈: the same amount, converted by molar mass.

Regarding `CCC/C=C1\OC(=O)C2=C1CCC1C2[C@@]23CC[C@@H]1C=C2C(=O)O/C3=C\CCC` (stereo partly shown) [S4], the half-maximal inhibitory concentration (IC50) with K562/Adr amounted to 12.4 ± 1.01 µg/mL (≈ 32.5 µM); in the assay on MCF-7/Adr it was 20.3 ± 2.12 µg/mL (≈ 53.4 µM); in the assay on Bel-7402 [1], 16.4 ± 1.94 µg/mL (≈ 43.2 µM); with Bel-7402/5-Fu, 17.6 ± 3.68 µg/mL (≈ 46.1 µM); in the assay with HUVEC it was 4.14 µg/mL (≈ 10.9 µM); in the assay with Bel-7402 [2], 30.4 µg/mL (≈ 79.9 µM). Besides, in assay [3], the tumor inhibition effect result is given as “significant tumor inhibition effects”.

The record behind these values is patent publication US8247444B2, “Anti-tumor effect of dimeric phthalide compound” (priority 2007, dated 2012).
